The numbers were not newly measured in patent US20150231284A1, “MOLECULAR PROBE FOR IMAGING OF PANCREATIC ISLET AND THE PRECURSOR, AND USE OF THE SAME” (Kyoto University, priority 2009, published 2015), which cites them from elsewhere.

The test system of series [1] is pancreatic islet cells. Conditions: Document 2; cited from earlier work.
Series [2] has as its system GLP-1R-positive tumor cells. Conditions: Document 2; cited from earlier work.

Turning to Lys^40(Ahx-DTPA-^111In)Exendin-4(9-39), the “uptake in pancreatic islets” value in series [1] is listed as “about 0.4%”. Also, the “uptake in the GLP-1R-positive tumor cells” value in series [2] was “about 7.5%”.
